Results from patent publication US20140107021A1 (priority 2010, published 2014).
Read-outs that look alike come from different tables or passages of the source. Peptide text beside a SMILES is read from it.

Columns and labels:
GLP-1 receptor = target: T1, GLP-1 receptor (Homo sapiens, UniProt P43220); experiment: cAMP induction at the GLP-1 receptor (agonist activity), firefly luciferase reporter assay in HEK293 cells; format: cell-based; conditions: for GLP-1R relative activity: relative to standard
T1 construct: expressed in transfected cells; host or cells: HEK293
T1 sequence (P43220 24-463): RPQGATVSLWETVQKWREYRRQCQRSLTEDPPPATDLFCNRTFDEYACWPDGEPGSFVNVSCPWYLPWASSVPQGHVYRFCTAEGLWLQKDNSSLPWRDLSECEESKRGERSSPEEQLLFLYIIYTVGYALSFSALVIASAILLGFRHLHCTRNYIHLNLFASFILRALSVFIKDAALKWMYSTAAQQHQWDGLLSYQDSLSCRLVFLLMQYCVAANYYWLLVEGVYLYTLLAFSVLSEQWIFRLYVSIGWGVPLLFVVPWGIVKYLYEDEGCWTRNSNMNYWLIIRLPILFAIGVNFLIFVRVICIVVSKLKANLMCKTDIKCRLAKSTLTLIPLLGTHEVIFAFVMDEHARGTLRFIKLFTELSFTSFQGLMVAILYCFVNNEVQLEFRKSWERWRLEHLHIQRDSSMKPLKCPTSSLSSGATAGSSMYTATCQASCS
Excerpt: (§1) HEK293 cells co-transfected with the receptor and luciferase gene linked to a cAMP responsive element were employed for the bioassay.
(§2) All EC50s and IC50s are reported in the following examples in nM, unless indicated otherwise.

glucagon receptor [1] = target: T2, glucagon receptor (Homo sapiens, UniProt P47871); experiment: cell-based; conditions: Glu ICso (nM), Table A; Glu = glucagon
T2 sequence (P47871 26-477): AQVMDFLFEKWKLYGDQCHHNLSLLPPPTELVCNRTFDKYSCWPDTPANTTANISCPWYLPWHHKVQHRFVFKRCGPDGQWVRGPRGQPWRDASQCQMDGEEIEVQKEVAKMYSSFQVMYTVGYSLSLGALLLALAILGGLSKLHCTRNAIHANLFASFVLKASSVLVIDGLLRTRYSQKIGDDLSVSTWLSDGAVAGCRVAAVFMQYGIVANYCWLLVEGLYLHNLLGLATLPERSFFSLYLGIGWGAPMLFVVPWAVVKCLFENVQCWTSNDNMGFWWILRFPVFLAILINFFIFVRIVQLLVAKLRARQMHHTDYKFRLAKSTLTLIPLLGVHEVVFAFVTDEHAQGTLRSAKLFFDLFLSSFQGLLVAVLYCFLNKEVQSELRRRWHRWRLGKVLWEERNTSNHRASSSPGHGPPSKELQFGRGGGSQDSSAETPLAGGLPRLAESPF
Excerpt: as §1, §2

glucagon receptor [2] = target: T2, glucagon receptor; experiment: cAMP induction at the glucagon receptor (agonist activity), luciferase reporter assay in HEK293 cells; format: cell-based; parameters: expressed in transfected cells; host or cells: HEK293; conditions: Table 4; for EC50: read-out: GR EC50; for GR relative activity: relative to standard
Excerpt: as §1, §2

GIP receptor = target: T3, GIP receptor (Homo sapiens, UniProt P48546); experiment: cAMP induction at the GIP receptor (agonist activity), luciferase reporter assay in HEK293 cells; format: cell-based; conditions: Table 4; for EC50: read-out: GIPR EC50; for GIPR relative activity: relative to standard
T3 construct: expressed in transfected cells; host or cells: HEK293
T3 sequence (P48546 22-466): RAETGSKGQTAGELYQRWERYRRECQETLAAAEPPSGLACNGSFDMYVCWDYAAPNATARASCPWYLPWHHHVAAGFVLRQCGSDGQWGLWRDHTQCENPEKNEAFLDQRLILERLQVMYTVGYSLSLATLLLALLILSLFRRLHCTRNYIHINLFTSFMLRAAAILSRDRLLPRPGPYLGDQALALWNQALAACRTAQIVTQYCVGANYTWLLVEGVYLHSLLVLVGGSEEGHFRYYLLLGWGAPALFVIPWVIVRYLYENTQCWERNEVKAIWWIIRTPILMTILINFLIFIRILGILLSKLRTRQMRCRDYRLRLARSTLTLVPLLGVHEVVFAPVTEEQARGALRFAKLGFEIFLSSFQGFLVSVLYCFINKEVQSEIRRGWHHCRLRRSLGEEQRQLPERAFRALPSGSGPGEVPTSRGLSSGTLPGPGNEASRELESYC
Excerpt: as §1, §2

SMILES | EC50 (GLP-1 receptor; GLP-1 EC50 (nM), Table C) [nM] | EC50 (GLP-1 receptor; GLP-1 ECso (nM), Table A) [nM] | IC50 (glucagon receptor [1]) [nM] | EC50 (GLP-1 receptor; Table 4, read-out: GLP-1R EC50) [nM] | GLP-1R relative activity (GLP-1 receptor; Table 4) [%] | EC50 (glucagon receptor [2]) [nM] | GR relative activity (glucagon receptor [2]) [%] | EC50 (GIP receptor) [nM] | GIPR relative activity (GIP receptor) [%]
CSCC[C@H](NC(=O)[C@H](CC(C)C)NC(=O)[C@H](Cc1c[nH]c2ccccc12)NC(=O)[C@H](CCC(N)=O)NC(=O)[C@@H](NC(=O)[C@H](Cc1ccccc1)NC(=O)[C@H](CC(=O)O)NC(=O)[C@H](CCC(N)=O)NC(=O)[C@H](C)NC(=O)[C@H](CCCNC(=N)N)NC(=O)[C@H](CCCNC(=N)N)NC(=O)[C@@H]1CCC(=O)NCCCC[C@H](NC(=O)[C@H](CO)NC(=O)[C@H](Cc2ccc(O)cc2)NC(=O)[C@H](CCC(=O)O)NC(=O)[C@H](CO)NC(=O)[C@@H](NC(=O)[C@@H](O)Cc2ccccc2)[C@@H](C)O)C(=O)N[C@@H](Cc2ccc(O)cc2)C(=O)N[C@@H](CC(C)C)C(=O)N[C@@H](CC(=O)O)C(=O)N1)C(C)C)C(=O)N[C@@H](CC(N)=O)C(=O)N[C@H](C(=O)NCC(=O)N1CCC[C@H]1C(=O)N[C@@H](CO)C(=O)N[C@@H](CO)C(=O)NCC(=O)N[C@@H](C)C(=O)N1CCC[C@H]1C(=O)N1CCC[C@H]1C(=O)N1CCC[C@H]1C(=O)N[C@@H](CO)C(N)=O)[C@@H](C)O [[PLA6, E9, K12E16(Lactam)] (HELM PEPTIDE1{[O=C([C@@H](O)Cc1ccccc1)[*:2]].T.S.E.Y.S.K.Y.L.D.E.R.R.A.Q.D.F.V.Q.W.L.M.N.T.G.P.S.S.G.A.P.P.P.S.[am]}$PEPTIDE1,PEPTIDE1,7:R3-11:R3$$$V2.0) | 6 | 6 | 72 | – | – | – | – | – | –
CC[C@H](C)[C@H](NC(=O)[C@H](CO)NC(=O)[C@H](Cc1ccc(O)cc1)NC(=O)[C@H](CC(=O)O)NC(=O)[C@H](CO)NC(=O)[C@@H](NC(=O)[C@H](Cc1ccccc1)NC(=O)[C@@H](NC(=O)CNC(=O)[C@H](CCC(=O)O)NC(=O)C(C)(C)NC(=O)[C@@H](N)Cc1ccc(O)cc1)[C@@H](C)O)[C@@H](C)O)C(=O)N[C@@H](Cc1ccc(O)cc1)C(=O)N[C@@H](CC(C)C)C(=O)N[C@@H](CC(=O)O)C(=O)N[C@@H](CCCCN)C(=O)N[C@@H](CCC(N)=O)C(=O)N[C@@H](C)C(=O)N[C@@H](C)C(=O)NC(C)(C)C(=O)N[C@@H](CCC(=O)O)C(=O)N[C@@H](Cc1ccccc1)C(=O)N[C@H](C(=O)N[C@@H](CC(N)=O)C(=O)N[C@@H](Cc1c[nH]c2ccccc12)C(=O)N[C@@H](CC(C)C)C(=O)N[C@@H](CC(C)C)C(=O)N[C@@H](C)C(=O)NCC(=O)NCC(=O)N1CCC[C@H]1C(=O)N[C@@H](CO)C(=O)N[C@@H](CO)C(=O)NCC(=O)N[C@@H](C)C(=O)N1CCC[C@H]1C(=O)N1CCC[C@H]1C(=O)N1CCC[C@H]1C(=O)N[C@@H](CO)C(N)=O)C(C)C [mt-395] | – | – | – | 0.0076 | 321.55 | 3.41 | 0.87 | 0.0025 | 537.45
CC[C@H](C)[C@H](NC(=O)[C@H](CO)NC(=O)[C@H](Cc1ccc(O)cc1)NC(=O)[C@H](CC(=O)O)NC(=O)[C@H](CO)NC(=O)[C@@H](NC(=O)[C@H](Cc1ccccc1)NC(=O)[C@@H](NC(=O)CNC(=O)[C@H](CCC(=O)O)NC(=O)C(C)(C)NC(=O)[C@@H](N)Cc1ccc(O)cc1)[C@@H](C)O)[C@@H](C)O)C(=O)N[C@@H](Cc1ccc(O)cc1)C(=O)N[C@@H](CC(C)C)C(=O)N[C@@H](CC(=O)O)C(=O)N[C@@H](CCCCN)C(=O)N[C@@H](CCC(N)=O)C(=O)N[C@@H](C)C(=O)N[C@@H](C)C(=O)NC(C)(C)C(=O)N[C@@H](CCC(=O)O)C(=O)N[C@@H](Cc1ccccc1)C(=O)N[C@H](C(=O)N[C@@H](CC(N)=O)C(=O)N[C@@H](Cc1c[nH]c2ccccc12)C(=O)N[C@@H](CC(C)C)C(=O)N[C@@H](CC(C)C)C(=O)N[C@@H](C)C(=O)NCC(=O)NCC(=O)N1CCC[C@H]1C(=O)N[C@@H](CO)C(=O)N[C@@H](CO)C(=O)NCC(=O)N[C@@H](C)C(=O)N1CCC[C@H]1C(=O)N1CCC[C@H]1C(=O)N1CCC[C@H]1C(=O)N[C@@H](CO)C(=O)N[C@@H](CCC(=O)O)C(N)=O)C(C)C [mt-396] | – | – | – | 0.0093 | 262.27 | 2.9 | 1.03 | 0.0034 | 402.69
